One assay has as its target T1, hGRK-2 (Homo sapiens, UniProt P25098).
T1 sequence (P25098 1-689): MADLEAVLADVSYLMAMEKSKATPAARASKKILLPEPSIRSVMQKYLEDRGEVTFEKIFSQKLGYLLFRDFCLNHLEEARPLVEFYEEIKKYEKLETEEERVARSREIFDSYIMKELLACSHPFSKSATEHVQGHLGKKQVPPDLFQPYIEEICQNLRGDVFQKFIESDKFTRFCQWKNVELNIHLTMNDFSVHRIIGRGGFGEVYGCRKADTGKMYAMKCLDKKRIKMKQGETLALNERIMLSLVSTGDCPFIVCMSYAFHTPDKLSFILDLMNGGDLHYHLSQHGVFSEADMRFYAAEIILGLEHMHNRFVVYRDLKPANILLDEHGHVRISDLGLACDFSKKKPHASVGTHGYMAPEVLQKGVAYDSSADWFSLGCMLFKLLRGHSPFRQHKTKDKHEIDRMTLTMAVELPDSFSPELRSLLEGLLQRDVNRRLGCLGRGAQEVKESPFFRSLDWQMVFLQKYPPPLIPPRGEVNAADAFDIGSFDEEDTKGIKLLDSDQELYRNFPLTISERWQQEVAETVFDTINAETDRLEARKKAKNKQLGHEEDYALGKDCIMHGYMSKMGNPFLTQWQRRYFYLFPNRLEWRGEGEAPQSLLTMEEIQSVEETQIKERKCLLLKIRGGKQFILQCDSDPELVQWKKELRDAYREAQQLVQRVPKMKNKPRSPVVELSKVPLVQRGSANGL
Briefly: luciferase-based (Kinase-Glo) biochemical kinase inhibition assay, hGRK-2. The conditions noted are these: for Ki: luciferase assay, casein substrate, 10 μM ATP, read-out: GRK-2 inhibition, Ki class. The method in brief: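 Final conditions: 50 nM hGRK2, 20 μM casein, 10 μM ATP and 50 μM test compound in 4.5% DMSO, in HEPES pH 7.5 buffer with MgCl2, orthovanadate, CHAPS, BSA and DTT. Incubation ran 90-120 min at room temperature, targeting 20-30% ATP consumption. Remaining ATP was read by luminescence with diluted Kinase-Glo containing 0.01% trypan blue.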
(Kinase-Glo reads ATP consumption through a luciferase reaction.)

A further assay addresses T2, GRK-3 (Homo sapiens, UniProt P35626).
T2 sequence (P35626 1-688): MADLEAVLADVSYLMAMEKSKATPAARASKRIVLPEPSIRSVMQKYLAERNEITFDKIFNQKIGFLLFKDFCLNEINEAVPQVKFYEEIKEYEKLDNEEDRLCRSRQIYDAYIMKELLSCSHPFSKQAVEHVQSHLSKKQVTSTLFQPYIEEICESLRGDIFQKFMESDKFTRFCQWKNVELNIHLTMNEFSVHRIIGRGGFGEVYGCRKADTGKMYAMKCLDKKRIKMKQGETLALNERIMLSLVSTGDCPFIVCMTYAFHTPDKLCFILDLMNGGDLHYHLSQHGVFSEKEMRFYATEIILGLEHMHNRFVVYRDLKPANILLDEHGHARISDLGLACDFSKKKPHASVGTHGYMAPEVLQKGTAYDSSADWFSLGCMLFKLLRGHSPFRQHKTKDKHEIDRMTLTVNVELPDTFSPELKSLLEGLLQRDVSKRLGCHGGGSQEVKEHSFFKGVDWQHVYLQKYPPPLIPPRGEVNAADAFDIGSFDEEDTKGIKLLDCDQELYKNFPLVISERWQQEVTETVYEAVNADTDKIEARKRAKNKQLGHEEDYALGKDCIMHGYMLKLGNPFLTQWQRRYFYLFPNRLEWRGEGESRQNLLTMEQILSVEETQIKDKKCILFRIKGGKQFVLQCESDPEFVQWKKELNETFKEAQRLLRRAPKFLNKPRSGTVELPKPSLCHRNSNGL
Briefly: luciferase-based biochemical kinase inhibition assay, GRK-3. The conditions noted are these: same luciferase assay; read-out: GRK-3 inhibition, Ki class. How it is done: (§1) The inhibition of G-protein-coupled receptor kinases including hGRK-2 was determined for the hydrazide compounds using a biochemical assay. The inhibition of GRK-3, GRK-5 and GRK-6 was also determined using the same assay for some of the hydrazide derivatives.
(§2) The protein kinase inhibition was determined using a biochemical assay utilizing the light emission of a luciferase reaction. The luciferase-based assay operates on the following reaction principles: [drawing 10]
(§3) An inhibitor of GRK-2 will increase in the amount of ATP in solution, as shown. Thus, an inhibitor of GRK-2 will drive the luciferase reaction to the right, resulting in more light emitted. The amount of light emitted is proportional to the inhibition resulting from the GRK-2 inhibitor. The luciferase-based assay was also used to test some of the hydrazides for the inhibition properties towards other kinases.

The next assay concerns the target GRK-6 (Homo sapiens, UniProt P43250). Briefly: luciferase-based biochemical kinase inhibition assay, GRK-6. Conditions: same luciferase assay; read-out: GRK-6 inhibition, Ki class. How it is done:
as §1, §2, §3

Assay [1] has as its target Beta 2 Adrenergic Receptor (B2 wt). Briefly: Transfluor assay, isoproterenol-induced arrestin-GFP translocation to Beta 2 Adrenergic Receptor. It is filed as cell-based. Conditions: U2OS cells.
For assay [2], the target named is Beta 1 Adrenergic receptor (B1 wt). Briefly: Transfluor assay, ISO-induced arrestin-GFP translocation to Beta 1 Adrenergic receptor. It is filed as cell-based. The conditions noted are these: U2OS cells.
Assay [3] relates to Beta 2 Adrenergic receptor. Briefly: cAMP accumulation in HEK-293 cells with isoproterenol. It is filed as cell-based. Conditions: Beta 2 Adrenergic receptor overexpressed, fixed concentration of isoproterenol, increased concentrations of compound. From the text: This is consistent with the inhibition of GRK-2 resulting in less translocation of arrestin-GFP, less desensitization, and consequently more signaling by the B2AR. With more receptors available now on the surface of the cell, more cAMP is being generated in the presence of isoproterenol.

The next assay concerns mu-opioid receptor. The conditions noted are these: U2OS cells.
Another assay addresses GRK-5 (Homo sapiens, UniProt P34947). Briefly: luciferase-based biochemical kinase inhibition assay, GRK-5. Conditions: same luciferase assay; read-out: GRK-5 inhibition, Ki class. How it is done:
The inhibition of G-protein-coupled receptor kinases including hGRK-2 was determined for the hydrazide compounds using a biochemical assay. […] The inhibition of GRK-3, GRK-5 and GRK-6 was also determined using the same assay for some of the hydrazide derivatives.
as §2, §3

Assay [4] is described as follows: Topical ocular composition of Example 103 administered to the eyes. Conditions: 0.50 wt % topical composition. It is filed as in vivo. As for the experimental part:
Examples of such assays are described in the following reference, incorporated herein: C. Liljebris, G. Selen, B. Resul, J. Sternschantz, and U. Hacksell, “Derivatives of 17-Phenyl-18,19,20-trinorprostaglandin F2α Isopropyl Ester: Potential Antiglaucoma Agents”, Journal of Medicinal Chemistry, Vol. 38 (2) 1995, pp. 289-304.
Topical pharmaceutical compositions for lowering intraocular pressure are prepared by conventional methods and formulated as follows: […]
A compound according to this invention is used as the hydrazide derivative. […]

Entries after “also recorded” stand apart in the source; their conditions may differ. Some results are limits rather than exact numbers.

Chain of GRK-5 (P34947 whole entry, species assumed): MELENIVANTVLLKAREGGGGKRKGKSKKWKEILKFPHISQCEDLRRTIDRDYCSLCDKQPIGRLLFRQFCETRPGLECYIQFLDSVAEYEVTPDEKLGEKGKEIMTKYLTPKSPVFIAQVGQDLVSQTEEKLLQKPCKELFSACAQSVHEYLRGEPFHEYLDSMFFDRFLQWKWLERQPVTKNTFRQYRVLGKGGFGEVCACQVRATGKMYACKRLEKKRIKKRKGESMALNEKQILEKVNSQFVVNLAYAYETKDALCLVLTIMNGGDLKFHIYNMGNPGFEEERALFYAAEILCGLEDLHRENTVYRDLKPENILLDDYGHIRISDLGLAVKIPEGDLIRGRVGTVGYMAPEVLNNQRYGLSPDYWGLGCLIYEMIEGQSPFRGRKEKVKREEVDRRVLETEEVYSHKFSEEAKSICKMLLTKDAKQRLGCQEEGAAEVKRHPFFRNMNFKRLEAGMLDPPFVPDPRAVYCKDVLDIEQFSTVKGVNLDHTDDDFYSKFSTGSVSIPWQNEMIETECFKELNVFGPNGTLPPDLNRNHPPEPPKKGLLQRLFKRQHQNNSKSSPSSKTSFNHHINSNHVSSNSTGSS
Chain of GRK-6 (P43250 whole entry, species assumed): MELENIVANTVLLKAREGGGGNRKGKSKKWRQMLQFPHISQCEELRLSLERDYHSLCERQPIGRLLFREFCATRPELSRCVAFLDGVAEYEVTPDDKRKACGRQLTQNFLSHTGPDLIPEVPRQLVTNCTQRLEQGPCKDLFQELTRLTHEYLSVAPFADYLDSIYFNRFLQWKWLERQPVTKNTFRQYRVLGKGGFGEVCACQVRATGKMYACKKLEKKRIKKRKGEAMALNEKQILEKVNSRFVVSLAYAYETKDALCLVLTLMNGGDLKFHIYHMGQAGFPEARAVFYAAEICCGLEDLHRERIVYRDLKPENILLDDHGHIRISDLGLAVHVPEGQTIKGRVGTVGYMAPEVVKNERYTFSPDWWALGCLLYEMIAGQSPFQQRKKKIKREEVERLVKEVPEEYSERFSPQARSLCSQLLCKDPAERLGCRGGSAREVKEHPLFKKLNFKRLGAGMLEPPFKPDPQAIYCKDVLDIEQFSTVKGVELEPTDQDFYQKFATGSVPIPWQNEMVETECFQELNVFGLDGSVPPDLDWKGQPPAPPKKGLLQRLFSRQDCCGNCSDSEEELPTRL

As to “3-{[1-Pyridin-4-yl-meth-(E)-ylidene-hydrazinocarbonylmethyl]-amino}-benzamide [Example 41]”, the “inhibition of GRK-2, in words” value at hGRK-2 is recorded as “very good inhibitor of GRK-2”. The Ki (in general, a dissociation constant, usually derived from enzyme kinetics or from competition with a known ligand) on hGRK-2 was 10 to 100 nM; at GRK-3, 10 to 100 nM; on GRK-6, above 10000 nM. The IC50 (commonly the midpoint of a concentration-inhibition curve) in assay [1] (60 minute pre-incubation, ISO-induced β-arrestin translocation, read-out: IC50 of the β2 arrestin (FIG. 1)) is 4000 nM; in assay [2] (60 minute pre-incubation, ISO-induced β-arrestin translocation, read-out: IC50 of the β1 arrestin (FIG. 2)) it was above 10000 nM; on mu-opioid receptor (read-out: IC50 for the μ-opioid receptor (FIG. 3), 60 minute pre-incubation, morphine-induced β-arrestin translocation), around 150 nM. Moreover, the “inhibition of arrestin-GFP translocation to the B2 WT (F-grains)” value in assay [1] (isoproterenol) is given as “stepwise reduction in translocation; also recorded: modest inhibition”. In addition, the “inhibition of arrestin-GFP translocation to the B1 WT” value in assay [2] is “modest inhibition”. Besides, the “accumulation of cAMP” value in assay [3] is “increased accumulation of cAMP”. For the same compound, the “inhibition of arrestin-GFP translocation to the μ opioid” value in the assay on mu-opioid receptor was “strong inhibition”.

Take `O=C(CNc1cccc(OCc2ccccc2)c1)N/N=C/c1c(Cl)cncc1Cl` [Example 9, (3-Benzyloxy-phenylamino)-acetic acid [1-(3,5-dichloro-pyridin-4-yl)-meth-(E)-ylidene]-hydrazide]: the Ki on hGRK-2 is 100 to 1000 nM; at GRK-3, 100 to 1000 nM; on GRK-5, 1000 to 10000 nM; at GRK-6, above 10000 nM.

Regarding `CNC(=O)c1cccc(NCC(=O)N/N=C/c2c(Cl)cncc2Cl)c1` [Example 13, 3-{[1-(3,5-Dichloro-pyridin-4-yl)-meth-(E)-ylidene-hydrazinocarbonylmethyl]-amino}-N-methyl-benzamide], the Ki on hGRK-2 was 100 to 1000 nM; on GRK-3 it was 100 to 1000 nM; on GRK-5, 1000 to 10000 nM; on GRK-6, above 10000 nM.

On to `O=C(CNc1cccc(Oc2ccccc2)c1)N/N=C/c1c(Cl)cncc1Cl` [Example 15, (3-Phenoxy-phenylamino)-acetic acid [1-(3,5-dichloro-pyridin-4-yl)-meth-(E)-ylidene]-hydrazide], for which the Ki is 100 to 1000 nM on hGRK-2, 100 to 1000 nM on GRK-3, 1000 to 10000 nM on GRK-5 and above 10000 nM on GRK-6.

`NC(=O)c1ccc(NCC(=O)N/N=C/c2c(Cl)cncc2Cl)cc1` [Example 28, 4-{[1-(3,5-Dichloro-pyridin-4-yl)-meth-(E)-ylidene-hydrazinocarbonylmethyl]-amino}-benzamide]: on hGRK-2, the Ki was above 10000 nM. The intraocular pressure result in assay [4] (drop twice per day) was “substantially decreases intraocular pressure”.

With `COc1cccc(NCC(=O)N/N=C/c2ccncc2)c1` [Example 43, (3-Methoxy-phenylamino)-acetic acid [1-pyridin-4-yl-meth-(E)-ylidene]-hydrazide], the Ki on hGRK-2 is 10 to 100 nM; at GRK-3, 10 to 100 nM; on GRK-5, 1000 to 10000 nM; on GRK-6, above 10000 nM.

In the case of `NC(=O)c1cccc(NCC(=O)N/N=C/c2ccncc2)c1` [Example 51, 3-{[1-Pyridin-4-yl-meth-(E)-ylidene-hydrazinocarbonylmethyl]-amino}-benzamide], the Ki at hGRK-2 and on GRK-3 was 100 to 1000 nM throughout. Besides, the “hyperemia, redness and ocular irritation” value in assay [4] (drop as needed) was “substantially decreases hyperemia, redness and ocular irritation”.

As to `O=C(CNc1cccc(Oc2ccccc2)c1)N/N=C/c1ccncc1` [Example 55, (3-Phenoxy-phenylamino)-acetic acid [1-pyridin-4-yl-meth-(E)-ylidene]-hydrazide], the Ki on hGRK-2 was 100 to 1000 nM; at GRK-3, 100 to 1000 nM; at GRK-5, above 10000 nM; at GRK-6, above 10000 nM.

Regarding `O=C(CNc1cccc(C(=O)NCCN2CCOCC2)c1)N/N=C/c1ccncc1` [Example 79, N-(2-Morpholin-4-yl-ethyl)-3-{[1-pyridin-4-yl-meth-(E)-ylidene-hydrazinocarbonylmethyl]-amino}-benzamide], the Ki on hGRK-2 lay in the range of 100 to 1000 nM. In addition, in assay [4] (drop 4 times per day), the intraocular pressure result is reported as “substantially decreases intraocular pressure” and the neuroprotective agent result was “serves as a neuroprotective agent”.

As for `Cc1ccc(Oc2cccc(NCC(=O)N/N=C/c3ccncc3)c2)cc1` [Example 85, (3-p-Tolyloxy-phenylamino)-acetic acid [1-pyridin-4-yl-meth-(E)-ylidene]-hydrazide], the Ki at hGRK-2 is 10 to 100 nM. Besides, in [4] (drop twice per day), the allergic symptoms entry is “substantially decreases allergic symptoms” and the dry eye syndrome entry is on record as “relieves dry eye syndrome”.

In the case of `COc1cccc(NCC(=O)N/N=C(\C)c2ccncc2)c1` [Example 88, (3-Methoxy-phenylamino)-acetic acid [1-pyridin-4-yl-eth-(E)-ylidene]-hydrazide], the Ki at hGRK-2 was 100 to 1000 nM; at GRK-3, 100 to 1000 nM; at GRK-5 it was 1000 to 10000 nM; on GRK-6 it was above 10000 nM.

These data come from patent publication US20070135499A1 (Aerie Pharmaceuticals, Inc., priority 2005, published 2007).
